# In patent publication US6596756B1, “Treatment of fibromyalgia” (Eli Lilly and Company, priority 1999, dated 2003):
# Read-outs that look alike come from different tables or passages of the source.
# Assays:
# [1] = tested on: formalin-induced paw-licking behavior in the rat; conditions: for Early Phase (sum of time spent licking, 0 to 5 minutes) / Late Phase (sum of seconds spent licking, 15 to 40 minutes): mean ± SEM
# From the text: (Shibata, M., Ohkubo, T., Takahashi, H., and Inoki, R., “Modified formalin test: Characteristic biphasic pain response,” Pain (1989) 38: 347-352; and Tjolsen, A., Berge, O. G., Hunskaar, S., Rosland, J. H., and Hole, K., “The formalin test: an evaluation of the method,” Pain (1992) 51:5-17.) The effect of duloxetine on formalin-induced paw-licking behavior in the rat was investigated as an index of persistent nociceptive activation. In this test, the injection of formalin under the skin on the dorsal lateral surface of the hind paw of rats causes an immediate and intense increase in the spontaneous activity of C fiber afferents. This activation evokes a distinctly quantifiable behavior indicative of pain, such as licking, flinching, shaking or biting of the injected paw. The behavioral response to formalin is biphasic, with an early phase that is short lived, followed by an extended tonic response or late phase of persistent nociceptive activation. Mechanisms causing the late phase response, such as central sensitization of pain transmitting neurons, are currently believed to contribute to various types of persistent pains.
# (§1) Male Sprague-Dawley rats (200-250 g; Charles River, Portage, Mich.) were maintained at constant temperature and light (12 h light/12 h dark) for 4-7 days prior to the studies. Animals had free access to food and water at all times prior to the day of the experiment.
# The formalin test was performed in custom made Plexiglas® boxes 25×25×20 cm (length×width×height) in size. A mirror placed at the back of the box allowed the unhindered observation of the formalin injected paw. Rats were acclimatized individually in the cubicles at least 1 hour prior to the experiment. All testing was conducted between 08:00 and 14:00 hr and the testing room temperature was maintained at 21-23° C. Test compound was administered 30 or 60 minutes prior to the formalin injection. Formalin (50 μl of a 5% solution in saline) was injected subcutaneously into the dorsal lateral surface of the right hind paw with a 27 gauge needle. Observation started immediately after the formalin injection. Formalin-induced pain was quantified by recording in 5 minute intervals the number of formalin injected paw licking events and the number of seconds each licking event lasted. These recordings were made for 50 minutes after the formalin injection. After the experiment, animals were killed with an overdose of CO2. (Euthanasia protocol, Eli Lilly Animal Use and Care Committee.)
# Scoring in the formalin test was performed according to Coderre et al., 1993b and Abbott et al., 1995. (Coderre T. J., Fundytus M. E., McKenna J. E., Dalal S. and Melzack R. “The formalin test: a validation of the weighted-scores method of the behavioral pain rating,” Pain(1993b) 54: 43-50; and Abbott F. V., Franklin K. B. J. and Westbrook R. F. “The formalin test: scoring properties of the first and second phases of the pain response in rats,” Pain (1995) 60: 91-102.) The sum of time spent licking in seconds from time 0 to 5 minutes was considered the early phase while the late phase was taken as the sum of seconds spent licking from 15 to 40 minutes.
# Data are presented as means with standard errors of means (±SEM). Data were evaluated by one-way analysis of variance (ANOVA) and the appropriate contrasts analyzed by Tukey's test and Dunnett “t” test for two-sided comparisons.
# [2] = tested on: mechanical allodynia due to the nerve ligation in rats; conditions: rat; for Allodynia Response: nerve ligation, mean ± SEM, p < 0.05 vs vehicle
# Protocol: All data were analyzed using the JMP statistical program. […] Data were evaluated by one-way analysis of variance (ANOVA) and the appropriate contrasts analyzed by Tukey's test and Dunnett “t” test for two-sided comparisons.
# [3] = tested on: Male Sprague-Dawley rats; conditions: rat; for Ataxia score 80 mins after drug, i.p. / Ataxia score, 30 mins after drug, i.p. / Ataxia Score, 60 mins after drug, p.o. / Ataxia score 110 mins after drug, p.o.: maximum score 40 seconds, mean ± SEM
# Protocol: The tendency of duloxetine to induce ataxia or neuromuscular effects at analgesic doses was investigated using the well-known rotorod test.
# as §1
# An automated accelerating rotorod (Omnitech Electronics Inc., Columbus, Ohio) connected to an IBM PC computer was utilized. For training and testing purposes, the rotorod was set up to accelerate to 17 r.p.m. in 5 seconds and maintaining that speed for 40 seconds. Rats were given 3 training trials to learn to maintain posture on the rotorod prior to the actual day of drug testing. The following day, rotorod testing was conducted both at 30 and 80 minutes for i.p. and at 60 and 110 minutes for p.o. following administration of drug or compound.
# All data were analyzed using the JMP statistical program. Data are presented as means with standard errors of means (±SEM). Data were evaluated by one-way analysis of variance (ANOVA) and the appropriate contrasts analyzed by Tukey's test and Dunnett “t” test for two-sided comparisons.
# [4] = 3 mg/kg i.p., 30 min before formalin
# [5] = 3 mg/kg p.o., 60 min before formalin
structure (smiles),measurement,setting,value
"CNCCC(Oc1cccc2ccccc12)c1cccs1 (stereo not drawn) [duloxetine, N-methyl-3-(1-naphthalenyloxy)-3-(2-thienyl)propanamine]","Early Phase (sum of time spent licking, 0 to 5 minutes)",[1]; [4],32.78 ± 15.97 s
same,"Late Phase (sum of seconds spent licking, 15 to 40 minutes)",[1]; [4],254.00 ± 45.87 s
same,"Early Phase (sum of time spent licking, 0 to 5 minutes)",[1]; [5],21.78 ± 5.14 s
same,"Late Phase (sum of seconds spent licking, 15 to 40 minutes)",[1]; [5],393.56 ± 26.74 s
same,"Early Phase (sum of time spent licking, 0 to 5 minutes)","[1]; 10 mg/kg i.p., 30 min before formalin",17.00 ± 5.83 s
same,"Late Phase (sum of seconds spent licking, 15 to 40 minutes)","[1]; 10 mg/kg i.p., 30 min before formalin, p < 0.05 vs vehicle",163.89 ± 54.14 s
same,"Early Phase (sum of time spent licking, 0 to 5 minutes)","[1]; 10 mg/kg p.o., 60 min before formalin",20.22 ± 5.29 s
same,"Late Phase (sum of seconds spent licking, 15 to 40 minutes)","[1]; 10 mg/kg p.o., 60 min before formalin, p < 0.05 vs vehicle",255.78 ± 38.22 s
same,"Early Phase (sum of time spent licking, 0 to 5 minutes)","[1]; 15 mg/kg i.p., 30 min before formalin",29.56 ± 16.30 s
same,"Late Phase (sum of seconds spent licking, 15 to 40 minutes)","[1]; 15 mg/kg i.p., 30 min before formalin, p < 0.05 vs vehicle",80.44 ± 36.22 s
same,"Early Phase (sum of time spent licking, 0 to 5 minutes)","[1]; 20 mg/kg p.o., 60 min before formalin",12.67 ± 3.61 s
same,"Late Phase (sum of seconds spent licking, 15 to 40 minutes)","[1]; 20 mg/kg p.o., 60 min before formalin, p < 0.05 vs vehicle",161.11 ± 31.77 s
same,effect on late phase response to formalin (in words),[1]; i.p. and p.o. dosing,blocks the late phase response to formalin in a dose-dependent manner
same,effect on allodynia following partial ligation of the sciatic nerve (in words),[2]; after acute or sub-chronic systemic administration,attenuates the allodynia
same,Allodynia Response,"[2]; 15 mg/kg i.p., 1 hour pretreatment",8.57 ± 1.72 g
same,Allodynia Response,"[2]; 20 mg/kg p.o., 1 hour pretreatment",8.53 ± 1.66 g
same,Allodynia Response,"[2]; 20 mg/kg × 4 day p.o., sub-chronic pretreatment (once a day for four consecutive days)",9.18 ± 2.95 g
same,"Ataxia score 80 mins after drug, i.p.",[3]; 3 mg/kg i.p.,33.35 ± 3.23 s
same,"Ataxia score, 30 mins after drug, i.p.",[3]; 3 mg/kg i.p.,34.27 ± 4.02 s
same,"Ataxia Score, 60 mins after drug, p.o.",[3]; 3 mg/kg p.o.,40.00 ± 0.00 s
same,"Ataxia score 110 mins after drug, p.o.",[3]; 3 mg/kg p.o.,40.00 ± 0.00 s
same,"Ataxia score 80 mins after drug, i.p.",[3]; 10 mg/kg i.p.,26.07 ± 6.24 s
same,"Ataxia score, 30 mins after drug, i.p.",[3]; 10 mg/kg i.p.,29.42 ± 6.71 s
same,"Ataxia Score, 60 mins after drug, p.o.",[3]; 10 mg/kg p.o.,39.11 ± 0.89 s
same,"Ataxia score 110 mins after drug, p.o.",[3]; 10 mg/kg p.o.,39.56 ± 0.44 s
same,"Ataxia Score, 60 mins after drug, p.o.",[3]; 20 mg/kg p.o.,40.00 ± 0.00 s
same,"Ataxia score 110 mins after drug, p.o.",[3]; 20 mg/kg p.o.,40.00 ± 0.00 s
same,"Ataxia score 80 mins after drug, i.p.",[3]; 30 mg/kg i.p.,25.52 ± 5.89 s
same,"Ataxia score, 30 mins after drug, i.p.",[3]; 30 mg/kg i.p.,24.75 ± 6.88 s
same,ataxia or neuromuscular effects in the rotorod test (in words),[3]; at doses that caused analgesia,did not show ataxia or neuromuscular effects
